Experimental data from patent publication US20230357179A1, “RAF KINASE INHIBITORS AND METHODS OF USE THEREOF” (Deciphera Pharmaceuticals, LLC, priority 2021, published 2023).

What was measured:
B-Raf kinase [1] = biological target: T1, B-Raf kinase (Homo sapiens, UniProt P15056); assay: Biochemical assay for B-Raf.2 (coupled pyruvate kinase/lactate dehydrogenase); conditions: read-out: BRAF.2 IC50
T1 construct: GST (N); purchased Sigma
Procedure: Biochemical Assay for B-Raf.2
Activity of B-Raf kinase (SEQ. ID NO: 2) was determined spectroscopically using a coupled pyruvate kinase/lactate dehydrogenase assay that continuously monitors the ATP hydrolysis-dependent oxidation of NADH (e.g., Schindler et al., Science, 2000, 289, 1938-1942). Assays were conducted in 384-well plates (25 μL final volume) using 2 nM B-Raf (Sigma), 1.5 units pyruvate kinase, 2.1 units lactate dehydrogenase, 1 mM phosphoenol pyruvate, 0.7 mM NADH, 50 nM MEK (SignalChem), and 1 mM ATP in assay buffer (100 mM Tris, pH 7.5, 15 mM MgCl2, 0.5 mM DTT, 0.1% octyl-glucoside, 0.002% (w/v) BSA, and 0.002% Triton X-100). Inhibition of B-Raf was measured by adding serial diluted test compound (final assay concentration of 1% DMSO). A decrease in absorption at 340 nm was monitored hourly for 4 h at 30° C. on a multi-mode microplate reader (BioTek). The reaction rate was calculated using the 2 to 3 h time frame. The reaction rate at each concentration of compound was converted to percent inhibition using controls (i.e., reaction with no test compound and reaction with a known inhibitor) and IC50 values were calculated by fitting a four-parameter sigmoidal curve to the data using Prism (GraphPad software).

A375 cells = assay: A375 cell proliferation assay (2), resazurin, 384-well; format: cell-based; conditions: Homo sapiens, A-375, inhibition of cell proliferation, 67-72 h
Procedure: A375 Cell Proliferation Assay (2)
A375 cells (catalog (#CRL-1619) are obtained from the American Type Culture Collect (ATTC, Manassas, VA). Briefly, cells were grown in DMEM High Glucose supplemented with 10% characterized fetal bovine serum (Invitrogen, Carlsbad, CA) and 1% Penicillin/Streptomycin/L-Glutamine at 37° C., 5% CO2, and 95% humidity. Cells are expanded until reaching 70-95% confluency at which point they are sub-cultured or harvested for assay use. Using the Beckman Coulter Echo 650, a serial dilution of test compound is dispensed into a 384-well black clear bottom plate in triplicate. Six hundred twenty-five cells are added per well in 50 μL complete growth medium in the 384-well plate. Plates are incubated for 67-72 h at 37° C., 5% CO2, and 95% humidity. At the end of the incubation, 10 μL of a 440 μM solution of resazurin (Sigma, St. Louis, MO) in PBS is added to each well of the plate and plates are incubated for an additional 3-6 h at 37° C., 5% CO2, and 95% humidity. Plates are read on a Synergy2 or equivalent reader (Biotek, Winooski VT) using an excitation of 540 nm and an emission of 600 nm. Data is analyzed using Prism software (GraphPad, San Diego, CA) to calculate IC50 values.

B-Raf kinase [2] = biological target: T1, B-Raf kinase; assay: Biochemical assay for B-Raf.1 (coupled pyruvate kinase/lactate dehydrogenase); conditions: read-out: BRAF.1 IC50
Procedure, shortened: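 NADH oxidation followed at 340 nm in a pyruvate kinase/lactate dehydrogenase-coupled assay with 0.13 nM B-Raf, 30.1 nM MEK substrate, 1 mM ATP, pH 7.5 Tris buffer, 1% DMSO. Monitored 6 h at 30 °C; rate taken from 4–5 h. IC50 from four-parameter sigmoidal fit.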

A-Raf kinase = biological target: T2, A-Raf kinase (Homo sapiens, UniProt P10398, Y301D/Y302D); assay: Biochemical assay for A-Raf.1 (coupled pyruvate kinase/lactate dehydrogenase); conditions: read-out: ARAF.1 IC50
T2 construct: purchased Sigma
T2 sequence (P10398 with tags, fused parts or gaps Y301D/Y302D): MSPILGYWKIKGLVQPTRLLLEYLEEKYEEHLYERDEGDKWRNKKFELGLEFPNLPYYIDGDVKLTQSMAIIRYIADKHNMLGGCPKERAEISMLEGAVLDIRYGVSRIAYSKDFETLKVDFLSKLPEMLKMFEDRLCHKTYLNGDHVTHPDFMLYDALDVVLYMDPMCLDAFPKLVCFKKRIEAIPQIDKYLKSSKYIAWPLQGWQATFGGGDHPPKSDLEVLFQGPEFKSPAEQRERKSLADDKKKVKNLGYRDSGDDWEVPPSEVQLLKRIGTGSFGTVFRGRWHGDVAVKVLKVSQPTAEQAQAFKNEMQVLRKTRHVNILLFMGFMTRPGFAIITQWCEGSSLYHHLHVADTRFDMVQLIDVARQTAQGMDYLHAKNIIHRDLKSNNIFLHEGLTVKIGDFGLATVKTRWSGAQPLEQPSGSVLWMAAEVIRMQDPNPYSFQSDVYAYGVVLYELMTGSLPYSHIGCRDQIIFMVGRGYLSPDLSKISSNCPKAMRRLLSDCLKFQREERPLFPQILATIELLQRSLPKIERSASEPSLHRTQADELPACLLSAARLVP
Procedure, shortened: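 A-Raf (5.55 nM) phosphorylating 30.1 nM MEK with 1 mM ATP was monitored by pyruvate kinase/lactate dehydrogenase-coupled NADH oxidation at 340 nm for 6 h at 30° C, in pH 7.5 Tris buffer with 15 mM MgCl2, 1% DMSO. Rates from 4–5 h gave percent inhibition; IC50 by four-parameter fit.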

T1 sequence (P15056 416-766): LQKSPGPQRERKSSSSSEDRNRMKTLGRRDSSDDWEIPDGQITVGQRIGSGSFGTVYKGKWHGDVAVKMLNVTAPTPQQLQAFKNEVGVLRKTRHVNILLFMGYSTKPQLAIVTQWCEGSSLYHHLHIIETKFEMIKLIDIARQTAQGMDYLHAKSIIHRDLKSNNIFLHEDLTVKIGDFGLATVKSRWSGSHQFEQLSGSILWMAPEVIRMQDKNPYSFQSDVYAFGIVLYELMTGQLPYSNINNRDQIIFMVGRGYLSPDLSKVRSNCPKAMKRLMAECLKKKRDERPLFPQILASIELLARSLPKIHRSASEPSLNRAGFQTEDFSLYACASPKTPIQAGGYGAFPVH

Row | IC50 (B-Raf kinase [1]) [nM] | IC50 (A375 cells) [nM] | IC50 (B-Raf kinase [2]) [nM] | IC50 (A-Raf kinase) [nM] | SMILES
1 | 500 to 1000 | 500 to 1000 |  |  | CNC(=O)c1cc(-c2cncc(-c3cc(NC(=O)N4CC[C@H](C(C)C)C4)ccc3C)c2)ncn1 [Example 226]
2 |  |  | > 1000 | > 1000 | Cc1cc(F)c(NC(=O)NCC[C@@H]2CCO2)cc1-c1cc(OCCO)nc(-c2ccnc3[nH]ncc23)c1 [Example 89]
3 |  |  | ≤ 100 | > 1000 | COC(=O)Nc1cc(-c2cccc(-c3cc(NC(=O)NCCC(C)(C)OC)c(F)cc3C)c2)ccn1 [Example 85]
4 |  |  | 500 to 1000 | > 1000 | Cc1cc(F)c(NC(=O)N[C@@H]2CC[C@H](F)C2)cc1-c1cc(OCCO)nc(-c2ccnc3[nH]ncc23)c1 [Example 88]
5 | ≤ 100 | 1000 to 10000 |  |  | Cc1ccc(NC(=O)N2CC[C@H](C)C2)cc1-c1cncc(-c2cc(NC(=O)C3CC3)ncn2)c1 [Example 227]
6 |  |  | 500 to 1000 | > 1000 | Cc1cc(F)c(NC(=O)N2CCC(C)(C#N)CC2)cc1-c1cc(OCCO)nc(-c2ccnc3[nH]ncc23)c1 [Example 92]
7 |  |  | ≤ 100 | 500 to 1000 | Cc1cc(F)c(NC(=O)NCCC2(C)CC2)cc1-c1cc(OCCO)nc(-c2ccnc3[nH]ncc23)c1 [Example 87]
8 |  |  | ≤ 100 | > 1000 | COC(C)(C)CCNC(=O)Nc1cc(-c2cc(OCCO)nc(-c3ccnc4[nH]ccc34)c2)c(C)cc1F [Example 90]
9 | 100 to 500 | 100 to 500 |  |  | CNC(=O)c1cc(-c2cc(-c3cc(NC(=O)N4CC[C@H](C(C)C)C4)ccc3C)ccn2)ccn1 [Example 225]
10 | 100 to 500 | 100 to 500 |  |  | CNC(=O)c1cc(-c2cncc(-c3cc(NC(=O)N4CC[C@H](C(C)C)C4)ccc3C)c2)ccn1 [Example 229]
11 |  |  | ≤ 100 | > 1000 | COC(C)(C)CCNC(=O)Nc1cc(-c2cc(OCCO)nc(-c3ccnc4[nH]ncc34)c2)c(C)cc1F [Example 91]
12 | 100 to 500 | 1000 to 10000 |  |  | CNC(=O)c1cc(-c2cncc(-c3cc(NC(=O)N4CC[C@H](C(F)(F)F)C4)ccc3C)c2)ncn1 [Example 220]
13 | 100 to 500 | 1000 to 10000 |  |  | CNC(=O)c1cc(-c2cncc(-c3cc(NC(=O)N4CC[C@H](C(F)(F)F)C4)ccc3C)c2)ccn1 [Example 228]
14 | 100 to 500 |  |  |  | CNC(=O)c1cc(-c2cc(-c3cc(NC(=O)N4CC[C@H](C(F)(F)F)C4)ccc3C)ccn2)ccn1 [Example 215]
15 | ≤ 100 |  |  |  | COC(=O)Nc1cc(-c2cncc(-c3cc(NC(=O)N4CC[C@H](C(F)(F)F)C4)ccc3C)c2)ncn1 [Example 224]
